Results published in article PMC5805504 (Oncotarget, 2017).
Read-outs that look alike come from different tables or passages of the source.

Experiments:
[1] = test system: U87MG glioblastoma cells; assay: U87MG in vitro cell migration assay; type: cell-based, human
Method: U87MG cells were cultured in minimum essential medium (MEM) supplemented with 10% fetal bovine serum (FBS). Eight micron migration plates (24 well) were coated with denatured collagen I (BD, cat# 354326) at 10 μg/ml. Following overnight incubation at 4°C, the lower chambers were washed three times with phosphate buffered saline (PBS) followed by blocking with 1% bovine serum albumin (BSA) for 1 hour. The chambers were washed 3 times in PBS then 200 μl of migration buffer [MEM containing 5% blocking solution (Sigma, cat# 2393), […]] was added. […] After 1 hour of culture, 10 ng/ml of recombinant human (rh) TGFβ1 was added to upper chambers and cells were allowed to migrate in a 37°C incubator for 48 hours. The non-migrated cells were aspirated and wiped off the upper chamber with a cotton swab. The inserts were washed 3 times with PBS and the chambers transferred to new […]. The chambers were fixed with 500 μl of 10% neutral buffered formalin (NBF) for 20 minutes followed by three washes with PBS. The cells were stained with Hoechst at 1:10,000 for 20 minutes in the dark then washed three times with PBS. The membranes were cut with a scalpel, placed on a slide and the pictures were taken using Eclipse 90i Microscope. Image Pro-Analyzer 7.0 was used for analysis of migrated cells.

[2] = test system: CEREP diversity panel, 65 targets; assay: CEREP diversity panel; settings: at 10 μM, duplicate; data not shown
[3] = test system: pSMAD in EMT6-LM2 cells; assay: TGFβ1-induced pSMAD inhibition in EMT6-LM2 cells (ELISA)
Method: Next, the samples were homogenized for 15 seconds using Bioruptor® UCD-200 by Diagenode at medium power.
Total and pSMAD2/3 levels were assessed independently on two separate ELISA plates. […] To the pSMAD ELISA plate, 100 μL per well of lysate (ranging from 0.04-0.1 mg total protein) was added to the appropriate wells. To the total SMAD ELISA plate, 10% of the total protein that was added to the pSMAD, was added to the appropriate wells (0.004-0.01 mg protein final). A standard curve was also added to both ELISA plates (p- and tSMAD plates) using recombinant HIS-pSMAD2 protein (Eli Lilly and Company). Plates were incubated overnight then washed four times with wash buffer. […] Following one hour of incubation, plates were washed and developed using 3, 3’, 5, 5’-tetramethylbenzidine substrate (TMB; Surmodics/BioFX #TMBW-0100-01) and absorbance (OD) was read at 450 nm on a plate reader.
Percent inhibition of normalized pSMAD2 levels was calculated by first determining the ratio of tSMAD to pSMAD values for the vehicle group. […]

[4] = test system: pSMAD in 13762 rat mammary carcinoma tumor; assay: 13762 rat tumor model, pSMAD in tumor tissue; type: in vivo, Fischer 344 rats; settings: Table 4, read-out: IC50 of pSMAD (%CV)
Method: (§1) Fischer 344 rats from Taconic Farms weighing 150 to 160 grams were acclimatized for 1 week prior to study initiation and had ad libitum access to food. Rats were shaved in the implant area then given a subcutaneous flank injection of 5 × 10^6 13762 rat mammary carcinoma cells in a 1:1 (v/v) mixture with Matrigel in media. […] Tumor, PBMCs, and plasma were collected at 0.5, 1, 1.5, 2, 4, 8, 16, and 24 hours for further analysis.
(§2) For correlation of pSMAD modulation in 13762 rat mammary carcinoma tumors and PBMCs, data were normalized using an analysis of co-variance of log pSMAD versus log tSMAD and treatment group. The slope (b) from this analysis was used to normalize the pSMAD values using pSMAD/(tSMAD)^b. Percent inhibition was calculated by the following formula: 100-(y/x)*100 where y = normalized pSMAD value and x = mean normalized pSMAD in the vehicle control. Linear correlation was used to compare tumor and PBMC measurements. In addition, using a cutoff of 50%, a 2 × 2 contingency table analysis was performed using Fisher's exact test.

[5] = test system: pSMAD in EMT6-LM2 tumors
Method: For in vivo measurement of tumor cell pSMAD activity, tumors were harvested from mice at the indicated time points post-treatment, snap frozen in liquid nitrogen, then pulverized in lysis buffer [EDTA 5 mM, EGTA 5 mM, sodium pyrophosphate 30 mM, sodium chloride 6.7 mM, sodium fluoride 50 mM, and 1% triton in water, pH 7.4 with protease and phosphatase inhibitors (Sigma, p8340, p5726, p0044) and sodium orthovanadate 2.5 mM]. Protein concentration was estimated with DC protein assay kit (BioRad).
Percent inhibition of normalized pSMAD2 levels was calculated by first determining the ratio of tSMAD to pSMAD values for the vehicle group. […] Percent inhibition for compound treated groups was determined relative to the minimum pSMAD inhibition of the vehicle group using the formula: [(100- (normalized pSMAD in the experimental treatment group/normalized pSMAD in the vehicle treated group)]. IC50 of pSMAD inhibition was calculated for the data using non-linear regression to fit the standard four parameter logistic model using GraphPad Prism 6.
Female athymic nu/nu mice or immune competent syngenic BALB/c mice (Charles River or Taconic Farms, respectively, 22 to 28 grams) were maintained in microisolator cages, received food and water ad libitum, and were quarantined for 1 week before experimental manipulation. Sub-confluent Calu6 human non-small cell lung cancer (NSCLC) cells were injected subcutaneously in the flank of nude mice (1x 10^7cells/per animal) in 0.2 mL of culture medium mixed with Matrigel (BD Biosciences, 1:1 v/v). EMT6-LM2 murine triple negative breast cancer tumor cells (5 × 10^5 cells/per animal in the absence of matrigel) were implanted on the flank of BALB/c mice. EMT6-LM2 cells were generated from parental EMT6 cells which were passaged twice from spontaneous lung metastases (LM) following subcutaneous growth. When the tumor volume reached ~250 mm^3, mice were randomized and separated into treatment groups.
Tumors and plasma were collected 2 hours post dosage for analysis of pSMAD and compound levels.
Tumors and plasma were collected at the indicated time points (0.5, 1, 1.5, 2, 4, 8, and 16 hours) for analysis of pSMAD and compound levels.
Percent target inhibition was calculated as described above then was modeled as a function of either dose or plasma concentration.

[6] = test system: U87MG xenograft tumors; assay: U87MG glioblastoma xenograft tumor model; settings: galunisertib 25 mg/kg BID oral; lomustine (CCNU) 30 mg/kg single intraperitoneal dose; alone or combined
Method: Five million U87MG glioblastoma cells, obtained from ATCC (Manassas, VA), were injected subcutaneously in the flank of 8- to 9-week old, female, athymic nude mice (Harlan, Indianapolis, IN) in a 1:1 mixture of 1x PBS and matrigel (Becton Dickinson, Bedford, MA). Mice were monitored daily for palpable tumors. […] The tumor volumes were recorded at regular intervals following treatment.

[7] = test system: pSMAD in NIH3T3 cells; assay: pSMAD inhibition in NIH3T3 cells; type: cell-based; settings: Mus musculus, read-out: IC50, inhibition of pSMAD, data not shown
[8] = test system: KPC-M09 cells; assay: E-Cadherin assay / TGFβ1-mediated EMT in KPC-M09 cells; type: cell-based, mouse; settings: 30 ng/ml TGFβ plus 2 μM or 10 μM, 48 hours
Description: The primary mouse pancreatic ductal adenocarcinoma (PDAC) cell line KPC-M09 was derived from a pancreatic GEMM [KrasLSL-G12D/+; Trp53LSL-R172H/+; Ptf1aCre/+ (KPC)]. […] Cell morphological changes were imaged at 20X (bright field). Cells were stained with an anti-E-cadherin primary Ab (Cell Signaling, clone 24E10, diluted 1:200) followed with a secondary anti-rabbit Cy3 (Cell Signaling, diluted 1:500). DAPI was used as a counter stain and cells were imaged at 40X.

[9] = set-up: method as in PMID 25424852; settings: patients with glioblastoma; cited from earlier work
[10] = target: T1, GAK (Homo sapiens, UniProt O14976); assay: KINOMEscan kinase competition binding assay (DiscoverX); settings: absence of ATP, three-point titration
T1 construct: purchased DiscoverX
T1 sequence (O14976 whole entry): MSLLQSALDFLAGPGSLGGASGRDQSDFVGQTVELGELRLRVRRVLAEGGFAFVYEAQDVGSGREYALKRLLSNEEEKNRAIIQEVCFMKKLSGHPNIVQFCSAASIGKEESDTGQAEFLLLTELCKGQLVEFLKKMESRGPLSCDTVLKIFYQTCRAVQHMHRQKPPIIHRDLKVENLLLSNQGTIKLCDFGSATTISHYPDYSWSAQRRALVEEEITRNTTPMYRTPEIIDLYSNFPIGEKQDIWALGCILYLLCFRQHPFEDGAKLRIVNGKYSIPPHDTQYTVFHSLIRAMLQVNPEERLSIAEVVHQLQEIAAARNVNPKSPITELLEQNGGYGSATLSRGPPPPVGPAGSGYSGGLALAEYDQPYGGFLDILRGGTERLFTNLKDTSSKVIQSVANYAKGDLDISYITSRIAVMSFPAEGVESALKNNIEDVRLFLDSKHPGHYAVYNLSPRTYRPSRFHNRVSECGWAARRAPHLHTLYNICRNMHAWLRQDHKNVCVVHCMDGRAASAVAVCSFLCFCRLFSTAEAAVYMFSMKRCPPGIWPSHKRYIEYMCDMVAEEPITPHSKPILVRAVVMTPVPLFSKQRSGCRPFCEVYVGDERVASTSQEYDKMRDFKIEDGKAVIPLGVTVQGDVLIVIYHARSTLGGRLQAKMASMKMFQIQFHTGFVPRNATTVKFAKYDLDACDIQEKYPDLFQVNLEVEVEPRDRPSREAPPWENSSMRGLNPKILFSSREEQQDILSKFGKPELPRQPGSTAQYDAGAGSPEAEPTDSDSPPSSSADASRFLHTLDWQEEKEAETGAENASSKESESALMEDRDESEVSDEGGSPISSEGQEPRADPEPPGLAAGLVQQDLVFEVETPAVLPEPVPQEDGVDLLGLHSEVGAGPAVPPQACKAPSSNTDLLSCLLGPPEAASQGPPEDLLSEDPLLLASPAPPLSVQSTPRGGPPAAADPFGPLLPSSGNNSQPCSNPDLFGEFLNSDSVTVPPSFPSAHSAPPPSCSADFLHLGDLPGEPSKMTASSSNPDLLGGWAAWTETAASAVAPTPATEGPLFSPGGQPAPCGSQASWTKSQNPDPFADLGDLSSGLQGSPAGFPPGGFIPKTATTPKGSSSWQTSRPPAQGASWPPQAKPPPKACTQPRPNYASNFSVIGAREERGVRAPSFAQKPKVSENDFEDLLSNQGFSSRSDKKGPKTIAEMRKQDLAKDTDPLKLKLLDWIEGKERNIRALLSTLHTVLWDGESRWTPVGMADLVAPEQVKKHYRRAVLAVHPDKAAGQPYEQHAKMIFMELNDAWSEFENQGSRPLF
Description: (§3) Data are presented as Geomean ± SD.

[11] = target: T2, NLK (Homo sapiens, UniProt Q9UBE8); assay: as above; settings: absence of ATP, three-point titration
T2 construct: purchased DiscoverX
T2 sequence (Q9UBE8 whole entry): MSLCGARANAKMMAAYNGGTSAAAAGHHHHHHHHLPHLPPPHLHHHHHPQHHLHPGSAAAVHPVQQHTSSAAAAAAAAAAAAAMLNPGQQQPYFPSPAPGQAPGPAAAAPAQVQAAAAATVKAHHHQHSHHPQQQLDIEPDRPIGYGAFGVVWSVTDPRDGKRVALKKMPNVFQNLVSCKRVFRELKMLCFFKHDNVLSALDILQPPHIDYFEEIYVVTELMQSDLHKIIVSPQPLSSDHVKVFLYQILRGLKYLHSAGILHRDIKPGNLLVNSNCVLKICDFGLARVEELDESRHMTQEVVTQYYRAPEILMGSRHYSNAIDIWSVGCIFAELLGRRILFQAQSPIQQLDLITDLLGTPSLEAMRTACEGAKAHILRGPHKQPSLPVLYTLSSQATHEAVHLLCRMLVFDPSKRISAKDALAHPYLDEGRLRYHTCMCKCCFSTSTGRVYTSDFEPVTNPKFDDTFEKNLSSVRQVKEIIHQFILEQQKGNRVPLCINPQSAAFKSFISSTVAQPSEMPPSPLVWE
Description: as §3

[12] = target: T3, Abl1 (Homo sapiens, UniProt P00519); assay: as above; settings: absence of ATP, three-point titration
T3 construct: purchased DiscoverX
T3 sequence (P00519 whole entry): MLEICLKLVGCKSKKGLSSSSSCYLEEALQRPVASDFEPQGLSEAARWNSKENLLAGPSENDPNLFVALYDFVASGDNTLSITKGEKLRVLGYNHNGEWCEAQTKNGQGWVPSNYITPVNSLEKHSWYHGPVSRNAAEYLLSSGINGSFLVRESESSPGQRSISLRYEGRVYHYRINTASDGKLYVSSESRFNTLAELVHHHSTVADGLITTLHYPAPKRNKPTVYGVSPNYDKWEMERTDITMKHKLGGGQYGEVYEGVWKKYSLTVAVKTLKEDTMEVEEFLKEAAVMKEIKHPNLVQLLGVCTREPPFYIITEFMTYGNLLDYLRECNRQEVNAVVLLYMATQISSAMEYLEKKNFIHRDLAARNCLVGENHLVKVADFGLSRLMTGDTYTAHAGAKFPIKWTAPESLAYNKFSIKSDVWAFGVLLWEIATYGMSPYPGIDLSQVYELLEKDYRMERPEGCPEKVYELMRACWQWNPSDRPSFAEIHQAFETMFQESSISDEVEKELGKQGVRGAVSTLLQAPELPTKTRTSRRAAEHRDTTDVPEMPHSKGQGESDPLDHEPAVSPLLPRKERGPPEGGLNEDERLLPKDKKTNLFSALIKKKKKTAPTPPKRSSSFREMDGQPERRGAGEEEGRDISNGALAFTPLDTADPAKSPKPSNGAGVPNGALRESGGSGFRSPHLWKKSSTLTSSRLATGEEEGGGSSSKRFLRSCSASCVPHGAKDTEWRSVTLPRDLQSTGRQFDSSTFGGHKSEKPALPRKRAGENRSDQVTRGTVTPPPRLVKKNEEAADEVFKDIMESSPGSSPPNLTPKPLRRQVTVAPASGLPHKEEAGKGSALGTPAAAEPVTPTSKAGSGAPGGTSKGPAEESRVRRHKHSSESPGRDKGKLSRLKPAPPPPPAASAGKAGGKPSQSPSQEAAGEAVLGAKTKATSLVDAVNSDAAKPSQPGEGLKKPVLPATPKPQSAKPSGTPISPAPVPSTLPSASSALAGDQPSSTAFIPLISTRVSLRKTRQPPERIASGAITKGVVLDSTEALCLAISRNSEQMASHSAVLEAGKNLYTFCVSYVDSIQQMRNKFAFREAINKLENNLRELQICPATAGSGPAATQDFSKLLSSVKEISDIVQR
Description: as §3

[13] = target: T4, ZAK (Homo sapiens, UniProt Q9NYL2); assay: as above; settings: absence of ATP, three-point titration
T4 construct: purchased DiscoverX
Description: as §3

[14] = target: T5, RIPK2 (Homo sapiens, UniProt O43353); assay: as above; settings: absence of ATP, three-point titration
T5 construct: purchased DiscoverX
T5 sequence (O43353 whole entry): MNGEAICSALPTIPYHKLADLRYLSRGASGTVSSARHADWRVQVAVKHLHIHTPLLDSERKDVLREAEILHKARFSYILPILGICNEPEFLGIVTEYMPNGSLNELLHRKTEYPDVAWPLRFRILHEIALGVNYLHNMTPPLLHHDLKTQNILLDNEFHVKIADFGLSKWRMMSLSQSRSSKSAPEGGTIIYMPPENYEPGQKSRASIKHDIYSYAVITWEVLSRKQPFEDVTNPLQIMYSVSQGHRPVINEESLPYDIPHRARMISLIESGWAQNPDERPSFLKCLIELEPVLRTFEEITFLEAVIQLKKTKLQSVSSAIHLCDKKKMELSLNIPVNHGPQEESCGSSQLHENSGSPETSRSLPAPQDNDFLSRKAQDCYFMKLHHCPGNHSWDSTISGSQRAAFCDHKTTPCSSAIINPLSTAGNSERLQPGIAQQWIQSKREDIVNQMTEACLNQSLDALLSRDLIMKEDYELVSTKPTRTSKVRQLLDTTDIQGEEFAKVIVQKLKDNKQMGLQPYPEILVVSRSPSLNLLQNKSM
Description: as §3

[15] = target: T6, Braf (Homo sapiens, UniProt P15056); assay: as above; settings: absence of ATP, three-point titration
T6 construct: purchased DiscoverX
T6 sequence (P15056 whole entry): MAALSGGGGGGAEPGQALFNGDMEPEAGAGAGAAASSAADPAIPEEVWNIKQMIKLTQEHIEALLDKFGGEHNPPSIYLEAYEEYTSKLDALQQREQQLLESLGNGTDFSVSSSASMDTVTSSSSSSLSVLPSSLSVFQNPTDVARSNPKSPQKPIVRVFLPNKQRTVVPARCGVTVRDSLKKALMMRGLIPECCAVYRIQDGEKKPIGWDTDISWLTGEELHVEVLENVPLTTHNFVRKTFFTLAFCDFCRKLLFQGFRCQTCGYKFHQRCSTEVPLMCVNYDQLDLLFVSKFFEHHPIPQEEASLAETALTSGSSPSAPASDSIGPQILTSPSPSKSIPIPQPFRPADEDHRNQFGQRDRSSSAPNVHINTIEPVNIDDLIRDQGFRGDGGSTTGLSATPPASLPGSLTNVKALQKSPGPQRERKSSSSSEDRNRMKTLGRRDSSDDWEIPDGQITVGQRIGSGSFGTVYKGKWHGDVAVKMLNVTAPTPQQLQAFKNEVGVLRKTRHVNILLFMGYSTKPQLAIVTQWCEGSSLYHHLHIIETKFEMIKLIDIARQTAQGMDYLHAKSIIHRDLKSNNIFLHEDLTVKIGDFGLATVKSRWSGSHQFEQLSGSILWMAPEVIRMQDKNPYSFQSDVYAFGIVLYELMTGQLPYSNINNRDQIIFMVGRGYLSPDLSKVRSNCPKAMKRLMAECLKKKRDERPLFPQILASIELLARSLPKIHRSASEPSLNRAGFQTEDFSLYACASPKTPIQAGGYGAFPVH
Description: as §3

[16] = target: T7, Alk1/ACVRL1 (Homo sapiens, UniProt P37023); assay: as above; settings: absence of ATP, three-point titration
T7 construct: purchased DiscoverX
Description: as §3

[17] = target: T8, TGFβRII (Homo sapiens, UniProt P37173); assay: Autophosphorylation kinase assay
T8 sequence (P37173 23-567): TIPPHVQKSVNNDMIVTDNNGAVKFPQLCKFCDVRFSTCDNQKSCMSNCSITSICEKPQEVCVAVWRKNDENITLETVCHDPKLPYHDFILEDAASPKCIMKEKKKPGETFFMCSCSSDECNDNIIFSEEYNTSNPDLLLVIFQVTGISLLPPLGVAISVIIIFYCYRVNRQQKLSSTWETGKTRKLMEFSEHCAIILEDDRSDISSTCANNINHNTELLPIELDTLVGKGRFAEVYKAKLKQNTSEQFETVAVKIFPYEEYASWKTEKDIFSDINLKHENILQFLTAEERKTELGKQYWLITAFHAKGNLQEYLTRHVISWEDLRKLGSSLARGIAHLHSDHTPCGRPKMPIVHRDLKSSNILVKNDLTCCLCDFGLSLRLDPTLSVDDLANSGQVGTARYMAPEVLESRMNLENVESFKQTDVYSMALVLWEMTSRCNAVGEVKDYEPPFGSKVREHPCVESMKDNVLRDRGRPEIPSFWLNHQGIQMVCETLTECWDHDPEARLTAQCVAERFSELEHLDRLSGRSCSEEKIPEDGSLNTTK

[18] = test system: pSMAD in PBMC; assay: 13762 rat tumor model, ex vivo stimulated PBMC pSMAD; type: in vivo, Fischer 344 rats; settings: Table 4, read-out: IC50 of pSMAD (%CV)
Method: as §1
Ex vivo stimulation and assessment of target modulation in PBMCs have been described in detail previously. Briefly, whole blood (2 to 3 mL) was collected by cardiac puncture from Fischer 344 rats and transferred to BD Vacutainer CPT sodium citrate tubes. PBMCs isolated from whole blood were stimulated with TGFβ1 at a final concentration of 100 pM at 37°C for one hour. Cells were washed with cold PBS and lysed in 50-100 μL of lysis buffer, and pSMAD and tSMAD levels were assessed by immunoblot assay as described above.
as §2, with “Linear correlation was used to compare tumor and PBMC measurements. In addition, using a cutoff of 50%, a 2 × 2 contingency table analysis was performed using Fisher's exact test.” left out

[19] = target: T8, TGFβRII; assay: Confirmatory TGFβRII binding assay
[20] = set-up: method as in earlier work; settings: patients with pancreas cancer; cited from earlier work

In the case of `Cc1cccc(-c2nn3c(c2-c2ccnc4ccc(C(N)=O)cc24)CCC3)n1.O` [galunisertib, 4-[2-(6-methylpyridin-2-yl)-5,6-dihydro-4H-pyrrolo[1,2-b]pyrazol-3-yl]quinoline-6-carboxamide monohydrate], the TGFβ1-enhanced cell migration ([1]; 1, 3, 10 μM, rhTGFβ1 10 ng/ml, 48 hours) is reported as “blocked cell migration in a dose dependent manner”, the “baseline migration in the absence of exogenous TGFβ1” value ([1]; galunisertib alone) is reported as “reduced baseline migration” and the “inhibition against all 65 targets” value [2] is reported as less than 25%. The IC50 ([3]; Mus musculus, read-out: IC50, pSMAD activity, EMT6-LM2, TGFβ1 10 ng/ml, ELISA) was 894 nM, the IC50 ([3]; read-out: IC50, pSMAD activity, EMT6-LM2, TGFβ1 10 ng/ml, ELISA) was 890 nM and the IC50 [4] was 719 nM. For the same molecule, the “pSMAD inhibition at maximum plasma exposure” value ([5]; EMT6-LM2, at 30 minutes) was ~ 70%, the “TED50, total effective dose to inhibit 50% pSMAD” value ([5]; EMT6-LM2, single oral dose, tumors 2 hours post dosage) was 19.7 mg/kg and the maximum plasma exposure ([5]; EMT6-LM2 time course, single oral dose) was “up to 6 μM”. For the same molecule, the “anti-tumor effect (tumor volume)” value [6] was “modest anti-tumor effect”, the IC50 [7] was 64 nM and the “TGFβ1-mediated EMT (epithelial morphology, membrane E-cadherin)” value [8] was “prevented TGFβ1-mediated EMT”. The “clinical activity, phase I” value [9] was “promising activity”, the IC50 [10] was 310 nM and the IC50 [11] was 910 nM. For the same molecule, the IC50 [12] was 860 nM, the IC50 [13] was 860 nM and the IC50 [14] was 220 nM. The IC50 [15] was 500 nM, the IC50 [16] was greater than 20000 nM and the IC50 [17] was 2000 nM. The IC50 [18] was 1960 nM, the IC50 [19] was 430 nM and the “clinical outcome versus gemcitabine, phase II” value [20] was “superiority over gemcitabine”.
